Test [1] addresses T1, AR wt (Homo sapiens, UniProt P10275).
T1 sequence (P10275 1-920): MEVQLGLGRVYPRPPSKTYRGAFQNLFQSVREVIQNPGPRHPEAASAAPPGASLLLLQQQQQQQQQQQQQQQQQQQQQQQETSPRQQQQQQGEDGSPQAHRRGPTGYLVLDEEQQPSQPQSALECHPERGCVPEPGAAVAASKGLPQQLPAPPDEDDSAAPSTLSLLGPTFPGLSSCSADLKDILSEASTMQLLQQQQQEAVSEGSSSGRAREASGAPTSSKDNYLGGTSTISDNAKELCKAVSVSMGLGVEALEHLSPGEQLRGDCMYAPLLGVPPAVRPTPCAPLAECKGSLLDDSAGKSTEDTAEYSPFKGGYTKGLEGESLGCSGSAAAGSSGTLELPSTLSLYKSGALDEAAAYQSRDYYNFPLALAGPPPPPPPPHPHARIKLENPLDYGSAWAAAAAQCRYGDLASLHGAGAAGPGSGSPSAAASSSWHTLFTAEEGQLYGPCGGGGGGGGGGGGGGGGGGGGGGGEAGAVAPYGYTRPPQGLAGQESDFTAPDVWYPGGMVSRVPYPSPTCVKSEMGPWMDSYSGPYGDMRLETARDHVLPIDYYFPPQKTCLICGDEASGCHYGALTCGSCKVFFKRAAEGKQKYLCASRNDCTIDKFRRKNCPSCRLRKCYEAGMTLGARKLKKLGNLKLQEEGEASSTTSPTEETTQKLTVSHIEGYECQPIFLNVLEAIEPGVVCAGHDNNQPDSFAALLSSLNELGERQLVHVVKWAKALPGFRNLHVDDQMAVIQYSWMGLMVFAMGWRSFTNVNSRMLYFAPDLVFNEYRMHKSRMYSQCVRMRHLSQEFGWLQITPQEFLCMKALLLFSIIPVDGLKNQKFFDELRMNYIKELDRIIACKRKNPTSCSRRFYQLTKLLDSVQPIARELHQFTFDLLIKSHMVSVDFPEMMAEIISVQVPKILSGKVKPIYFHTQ
Nature of the test: Transcription assay (ARE-luciferase reporter) in CV-1 cells, wild-type AR. Type of test: cell-based. Further details: expressed in transfected cells; host or cells: CV-1. The conditions noted are these: for Antagonist efficacy (RLU value at IC50), AR wt: in competition with 3 nM DHT, normalized to 10 nM DHT in hAR(wt). How it is done: (§1) Twenty-four hours prior to transfection, CV-1 cells were seeded at a density of 45,000 cells per well in 24-well cell culture plates and grown in phenol red free Dulbecco's Modified Eagle Medium (DMEM) supplemented with 10% cosmic calf serum (COS). ARE-luciferase reporter and Renilla-Luc as the internal standard and a prokaryotic expression vector encoding the wild-type androgen receptor or mutant androgen receptor were transfected with Lipofectamine (Invitrogen) following manufacturer's protocol. Five hours after transfection, media was added containing the appropriate concentrations of ligands. The cells were allowed to incubate for 38 hours before harvesting by passive lysis buffer. Cell extracts were immediately assayed using the Dual Luciferase Assay (Promega) with a Perkin-Elmer Microbeta Luminometer. […] Dose-response data was analyzed by nonlinear regression analysis using GraphPad Prism.
For orientation: A reporter such as luciferase makes a cellular process visible.

Test [2] deals with T2, AR W741C (Homo sapiens, UniProt P10275, W742C).
T2 sequence (P10275 1-920 W742C): T1 sequence (P10275 1-920) with W742C
Nature of the test: Transcription assay (ARE-luciferase reporter) in CV-1 cells, AR W741C. It is filed as cell-based. Set-up: expressed in transfected cells; host or cells: CV-1. To be noted: for Antagonist efficacy (RLU value at IC50), AR W741C: in competition with 200 nM DHT. As for the experimental part:
as §1

Test [3] concerns the target T1, AR wt. Briefly: Competitive binding assay, [3H]DHT, transfected COS-7 cells, wild-type AR. Further details: expressed in transfected cells; host or cells: COS-7. The conditions noted are these: 8 nM [3H]-DHT, read-out: Binding affinity (Ki), AR wt. How it is done:
(§2) Twenty-four hours prior to transfection, COS-7 cells were seeded at a density of 70,000 cells per well in 24-well cell culture plates and grown in phenol red free Dulbecco's Modified Eagle Medium (DMEM) supplement with 10% cosmic calf serum (CCS). The cells were transfected with a prokaryotic expression vector encoding the wild-type androgen receptor or mutant androgen receptor using Lipofectamine (Invitrogen) following manufacturer's protocol. […] Cells were washed with PBS and harvested in 2% SDS, 10% glycerol, and 10 mM Tris, pH 6.8, and radioactivity determined by scintillation counting.

In test [4] the target is T2, AR W741C. Nature of the test: Competitive binding assay, [3H]DHT, transfected COS-7 cells, AR W741C. Further details: expressed in transfected cells; host or cells: COS-7. The conditions noted are these: 75 nM [3H]-DHT, read-out: Binding affinity (Ki), AR W741C. As for the experimental part: as §2

Numbering of substitutions follows the chain as printed.

As to `CN(C)CCCOc1cccc(Cc2ccccc2S(=O)(=O)CC(C)(O)C(=O)Nc2ccc(C#N)c(C(F)(F)F)c2)c1` (stereo not shown) [PAN22], the IC50 (commonly the concentration needed to halve the response being measured) worked out at 2 ± 2.2 µM against AR wt [1] and 5.6 ± 0.8 µM on AR W741C [2]. The “Antagonist efficacy (RLU value at IC50), AR wt” value (“Antagonist efficacy … AR wt” for short) at AR wt [1] is reported as “(50% ± 30%)”. In addition, the “Antagonist efficacy (RLU value at IC50), AR W741C” value (from here on “Antagonist efficacy … AR W741C”) on AR W741C [2] is given as “(53% ± 2.1%)”. For the same compound, the inhibition constant Ki (as a rule, a measure of affinity in units of concentration, obtained from inhibition or displacement) on AR wt [3] is 2.3 µM; on AR W741C [4], 9.8 µM.

For `CC(O)(CS(=O)(=O)c1ccccc1-c1ccccc1O)C(=O)Nc1ccc(C#N)c(C(F)(F)F)c1` (stereo not shown) [PAN41, N-(4-cyano-3-(trifluoromethyl)phenyl)-2-hydroxy-3-(2′-hydroxybiphenyl-2-ylsulfonyl)-2-methylpropanamide], on AR wt [1], the IC50 came to 1.2 ± 0.5 µM and the “Antagonist efficacy … AR wt” value was “(45% ± 14%)”. At AR W741C [2], the IC50 is 8 ± 2.6 µM and the “Antagonist efficacy … AR W741C” value is listed as “(50% ± 1.0%)”.

Consider `CN(C)CCCOc1cccc(-c2ccccc2S(=O)(=O)CC(C)(O)C(=O)Nc2ccc(C#N)c(C(F)(F)F)c2)c1` (stereo not shown) [PAN52], for which, on AR wt [1], it took 3.5 ± 2 µM to reach half-maximal inhibition (IC50) and the “Antagonist efficacy … AR wt” value was “(49% ± 4.4%)”. For the same compound, on AR W741C [2], the IC50 amounted to 5.9 ± 2.5 µM and the “Antagonist efficacy … AR W741C” value is reported as “(50% ± 1.0%)”. Besides, on AR wt [3], the Ki worked out at 3 µM. At AR W741C [4], the Ki is 7.3 µM.

With `CN(C)CCCOc1ccc(-c2ccccc2S(=O)(=O)CC(C)(O)C(=O)Nc2ccc(C#N)c(C(F)(F)F)c2)cc1` (stereo not shown) [PAN62], on AR wt [1], half-maximal inhibition (IC50) required 2.3 ± 0.9 µM and the “Antagonist efficacy … AR wt” value is “(51% ± 9.1%)”. Further, on AR W741C [2], the IC50 is 15 ± 17 µM and the “Antagonist efficacy … AR W741C” value is recorded as “(56% ± 5.7%)”. In addition, the Ki on AR wt [3] was determined as 25 µM. Also, on AR W741C [4], the Ki stood at 2.62 µM.

The values above are taken from patent US8450374B2, “Pan-antagonists for the androgen receptor and androgen receptor mutants associated with anti-androgen withdrawal” (priority 2009, dated 2013).
